Like-named read-outs stand apart in the source and are kept apart here.
Assays:
[1] = tested on: primary orbital fibroblasts; test: 15d-PGJ2 on TGF-β1 induced HA and HAS mRNA; assay type: cell-based, human; details: 15d-PGJ2 0.5, 1.0 or 2.0 μM
Protocol: Primary orbital fibroblasts were isolated from Graves' disease patients undergoing orbital decompression surgery. The cells were grown in RPMI 1640 media containing 10% FBS, and incubated for 24 hours either with or without 2 ng/ml TGF-β1, and 0.5 μM, 1.0 μM, or 2.0 μM 15d-PGJ2. The amount of HA in the cell culture supernatant and pericellular extraction was measured by ELISA as in the preceding Examples. […] While TGF-β normally induces both HAST and HAS2 mRNA expression, TGF-β induced HA secretion was inhibited by 15d-PGJ2 (FIG. 18).

[2] = tested on: human orbital fibroblasts; test: HA ELISA of culture medium of orbital fibroblasts treated with prostaglandins or drugs; assay type: cell-based; details: for HA levels after selective DP agonist: compared to untreated fibroblasts; for basal HA levels: 100 nM antagonist alone, compared with untreated; for PGD2- and PGJ2-induced HA production: 100 nM antagonist pretreatment 1 hour, PGD2 5 μM or PGJ2 2 μM
Source text: Orbital fibroblasts: Primary orbital fibroblasts were isolated from TED patients undergoing orbital decompression surgery. The protocols for orbital biopsy and blood sample, described below, were approved by the Internal Review Board and informed, written consent was obtained from all patients. […] Fibroblasts were characterized by their adherent morphology, expression of vimentin and types I and III collagen and absence of CD45, factor VIII or cytokeratin. Fibroblasts were used at the earliest passage possible (between passages 4 to 10). Human T cells: Lymphocytes were isolated from 60 ml of peripheral blood obtained during orbital decompression surgery. Whole blood was separated over a Ficoll-Paque Plus Gradient (Amersham Biosciences, Piscataway, N.J.) to obtain peripheral blood mononuclear cells. T cells were enriched using CD3/CD28 T cell Expander beads (Invitogen). […] After that, 50 U/ml of recombinant interleukin-2 (rIL-2) was added to the culture and incubated for another 2-3 days. On day 5, cells were diluted to a concentration of 0.5×10^6 cells/ml in medium containing 50 U/ml rIL-2 and incubated for an additional 3-7 days. Cellular purity was assessed using an anti-CD3-PE antibody (BD Biosciences, San Jose, Calif.) and analyzed on a FACSCalibur flow cytometer (BD Biosciences).
Aliquots of culture medium were removed at indicated time points, centrifuged (5 min, 8,000×g at 4° C.) and HA levels quantified by enzyme-linked immunosorbent assay (ELISA) according to the manufacturer's protocol (R&D Systems). Briefly, samples were incubated in HA-binding protein (HABP)-coated microwells, allowing HA in samples to react with the immobilized HABP. After the removal of unbound molecules by washing, biotinylated-HABP was added to the microwells. Following a second wash, streptavidin-conjugated to horseradish peroxidase was added. After the last wash, the chromogenic substrate was added and HA levels were determined using a Varioskan Flash plate reader (Thermo Fisher Scientific, Milford, Mass.).

[3] = tested on: human orbital fibroblasts; details: previously reported (Feldon et al. 2006); cited from earlier work
[4] = tested on: human orbital fibroblasts; test: qRT-PCR of HAS mRNA after TGF-β1 with or without Pio or Rosi; assay type: cell-based; details: 10 μM, 6 hours
Source text: RNA was isolated from orbital fibroblast strains using the RNeasy Mini kit according to the manufacturer's protocol (Qiagen, Valencia, Calif.) and reverse transcripted to cDNA using iScript cDNA synthesis kit (Bio-Rad, Hercules, Calif.). Primers for human HAS1, 2, 3 and 7S as well as qRT-PCR method to detect relative abundance of mRNA are identified supra. Primers for human PPARγ1 (NM138711) and PPARγ 2 (NM015869) mRNA were 5′-AAAGAAGCCGA-CACTAAACC-3′ (SEQ ID NO:3) (sense), 5′-CTTCCATTACGG-AGAGATCC-3′ (SEQ ID NO:4) (antisense) and, 5′-GCGATTC-CTTCACTGATAC-3′ (SEQ ID NO:5) (sense), 5′-CTTCCATT-ACGGAGAGATCC-3′ (SEQ ID NO:6) (antisense), respectively.

[5] = tested on: human orbital fibroblasts; test: Cell viability assay (XTT); assay type: cell-based; details: 24 hours, with or without TGF-β1
Protocol: Cell viability was assayed using the colorimetric XTT (2,3-bis-(2-methoxy-4-nitro-5-sulfophenyl)-2H-tetrazolium-5-carboxanilide) assay kit (Roche, Germany). Briefly, orbital fibroblasts were seeded in a 96-well plate and cultured with various treatments. Twenty hours after treatment, 50 μl of XTT labeling mixture was added and cells were incubated at 37° C. for 4 hours. The amount of cleaved XTT product generated by metabolically active cells was assayed by measuring absorbance using an ELISA plate reader at 480 nm with a reference wavelength at 650 nm. Cell viability results were also confirmed by Trypan blue staining.

[6] = tested on: human orbital fibroblasts; test: Quantitation of secreted, pericellular and intracellular HA by ELISA, TGF-β1 treatment; assay type: cell-based; details: for inhibition at 10 µM: Homo sapiens, Fibroblast, 2 ng/ml TGF-β1, 24 hours; for cell number after treatment: cells counted in the FIG. 10 experiment
Protocol: Confluent monolayers of orbital fibroblasts were serum starved in 0.5% FBS RPMI-1640 medium for three days and pretreated with different concentrations of Pio or Rosi for 1 hour and then treated with or without 2 ng/ml TGF-β1 for 24 hours. After treatments, an aliquot of culture medium (secreted HA) was removed and centrifuged at 8,000×g at 4° C. for 5 minutes and the supernatant was saved for later analysis. The cells were washed twice with PBS and treated with 0.25% trypsin-EDTA solution (GIBCO, Invitrogen) at 37° C. for 5 minutes, the reaction was stopped by addition of culture medium and cell number was determined using a hemocytometer. The cells were then centrifuged and the supernatant was collected and incubated at 100° C. for 10 minutes to inactivate trypsin activity. This supernatant was saved for pericellular HA detection. The cell pellet was washed with PBS once and digested with 120 μg/ml proteinase K in 0.1% SDS/0.1 M Tris-HCl (pH 7.6) at 37° C. for 1 hour, and proteinase K was inactivated by incubation at 100° C. for 10 min. The cell lysate was centrifuged and supernatant analyzed for intracellular HA.
The amount of HA in each extract (secreted HA, pericellular HA and intracellular HA) was measured by ELISA based on the specific interaction of HA with HA binding protein (HABP). The HA detection kit was purchased from R&D system (Minneapolis, Minn.). Briefly, diluted samples were incubated in HABP-coated microwells, allowing HA present in samples to react with the immobilized HABP. After extensive washing, biotinylated HABP was added to the microwells to form complexes with bound HA. Following another round of washing, streptavidin conjugated horseradish peroxidase was added. After a brief incubation period and washing, chromogenic substrate was added and HA levels were determined using a Varioskan Flash plate reader (Thermo Fisher Scientific, Milford, Mass.). A fraction of the samples were pretreated with Streptomyces hyaluronidase (2 U/ml at 37° C. for 2 hour) before subjected to the ELISA assay as a negative control. Furthermore, an additional 50 ng/ml (final concentration) of free soluble HA was added to a fraction of the cell lysate samples to confirm that there are no inhibitory factors present and that the assays show the expected additivity when a known amount of exogenous HA is included.

HMC-1 cells = test: Measurement of PGD2 produced by mast cells (PGD2-MOX EIA); assay type: cell-based, human; details: 10 μM A23187, 30 minutes, compared to untreated
Protocol: HMC-1 cells (1×10^6/well) were seeded into 6-well plates and cultured in IMDM medium with 5% FBS in the absence or presence of HQL-79 (H-PGDS inhibitor, 100 μM) at 37° C. for 60 minutes. The cells were then washed and resuspended in RPMI 1640 medium with 0.5% FBS. After 2 hours incubation, the cells were stimulated with 10 μM calcium ionophore A23187 for 30 minutes. The culture media were collected and PGD2 in the supernatants was quantified by PGD2-MOX EIA kits (Cayman Chemical).

[7] = tested on: human orbital fibroblasts; test: qRT-PCR of HAS mRNA after PGD2 or BW245C; assay type: cell-based; details: BW245C 10 μM
Protocol: RNA was isolated from orbital fibroblasts or T cells using an RNeasy Mini kit (Qiagen). RNA was reverse transcribed to cDNA using iScript cDNA synthesis kit (Bio-Rad) and diluted 5-fold in RNase-free H2O. Forward and reverse primers for each gene are shown in Table I. RT-PCR: The PCR reaction was performed using Qiagen Fast Cycling PCR kit for 30 cycles in a Bio-Rad thermal cycler. The PCR product was visualized on a 5% acrylamide gel stained with ethidium bromide. Amplifications without reverse transcriptase were carried out as negative controls. qRT-PCR: qRT-PCR was performed in a Bio-Rad iCycler containing B-R SYBR Green SuperMix for IQ (Quanta Biosciences, Gaithersburg, Md.). Efficiency of the amplification was determined to be >90%.
Amplification of 7S ribosomal RNA was carried out for each cDNA (in triplicate) for normalization. Threshold cycle number (Ct) of amplification in each sample was determined by Bio-Rad software and the relative mRNA abundance was calculated as the Ct for amplification of a gene-specific cDNA minus average Ct for 7S, expressed as a power of 2; i.e., 2^ΔCt.

orbital fibroblasts = test: Measurement of intracellular cAMP (TR-FRET immunoassay); assay type: cell-based, human; details: PGD2 5 μM, BW245C 10 μM, up to 60 minutes
Protocol: cAMP levels were quantified using a time-resolved fluorescence resonance energy transfer (TR-FRET) immunoassay from Perkin Elmer (Waltham, Mass.) according to the manufacturer's protocol. Briefly, orbital fibroblasts were detached with a non-enzymatic cell dissociation solution (Versene, Invitrogen) and re-suspended in Stimulation Buffer (pH 7.4; 1×HBSS buffer containing 5 mmol/L HEPES buffer and 0.01%-0.1% BSA) containing 0.5 mM IBMX and labeled with the Alexa Fluor® 647-labeled anti-cAMP antibody. Finally, the cells were incubated with drugs at the indicated times. Following addition of the detection buffer, the amount of cAMP signal was measured.

CCCCC/C=C/C=C1/C(=O)C=C[C@@H]1C/C=C\CCCC(=O)O [15d-PGJ2, 15-deoxy-Δ12,14-Prostaglandin J2]
TGF-β induced HAS2 mRNA expression ([1]; 2 ng/ml TGF-β1): inhibited TGF-β induced HAS2 mRNA expression | TGF-β induced HAST mRNA expression ([1]; 2 ng/ml TGF-β1): enhanced TGF-β induced HAST mRNA expression | TGF-β induced HA secretion ([1]; 2 ng/ml TGF-β1, 24 hours): inhibited

CCCCCC(=O)CCC1C(=O)CC(O)C1C/C=C\CCCC(=O)O (stereo not drawn) [DK-PGD2, 13,14-dihydro-15-keto-PGD2]
HA levels after selective DP agonist [2]: did not significantly increase HA levels

O=C(O)CCn1c2c(c3ccccc31)C[C@H](NS(=O)(=O)c1ccc(F)cc1)CC2 [Ramatroban]
basal HA levels [2]: neither MK-0524 (MK) nor Ramatroban (RAM) influenced basal HA levels | PGD2- and PGJ2-induced HA production ([2]; 18 hours): unable to prevent the induction of HA by PGD2 or PGJ2

CCCCC[C@H](O)/C=C/[C@H]1C(=O)C=C[C@@H]1C/C=C\CCCC(=O)O [PGJ2]
adipogenesis in human orbital fibroblasts [3]: induce adipogenesis | concentration yielding the largest induction of HA ([2]; 18 hours, strains OF1 and OF2): 2 µM | HA synthesis (HA ELISA) ([2]; increasing concentrations, 18 hours, strains OF1 and OF2): significantly increased HA synthesis by both fibroblast strains in a dose-dependant manner

CCc1ccc(CCOc2ccc(CC3SC(=O)NC3=O)cc2)nc1 (stereo not drawn) [Pio, pioglitazone]
inhibition of TGF-β1 mediated HAS1 mRNA induction [4]: about 50% | inhibition of TGF-β1 mediated HAS2 mRNA induction [4]: about 50% | cell viability (XTT) [5]: no significant difference in cell viability among treatment conditions | inhibition at 10 µM ([6]; read-out: inhibition of TGF-β1 mediated pericellular accumulation of HA): 40 ± 2.2% | inhibition at 10 µM ([6]; read-out: inhibition of TGF-β1 mediated secretion of HA): 52 ± 2.2% | cell number after treatment [6]: No significant changes in cell number

O=C(Nc1ccccc1)c1cc([N+](=O)[O-])ccc1Cl [GW9662]
PPARγ ligand-driven adipogenesis [3]: completely inhibited | effect of GW9662 on inhibition of TGF-β1 induced HA synthesis by Pio or Rosi ([6]; 1 μM GW9662 pretreatment 1 hour, 10 μM Pio or Rosi, 24 hours): did not significantly reduce the ability of either Pio or Rosi to inhibit TGF-β1 induced HA synthesis

CNc1ccc2oc(C[C@H]3O[C@@]4(CC[C@H]3C)O[C@H]([C@H](C)C(=O)c3ccc[nH]3)[C@H](C)C[C@H]4C)nc2c1C(=O)O [A23187]
PGD2 production on activation (HMC-1 cells): significantly increased PGD2 production

CN(CCOc1ccc(CC2SC(=O)NC2=O)cc1)c1ccccn1 (stereo not drawn) [Rosi, rosiglitazone]
cell viability (XTT) [5]: no significant difference in cell viability among treatment conditions | cell number after treatment [6]: No significant changes in cell number

CS(=O)(=O)c1cc(F)cc2c3c(n(Cc4ccc(Cl)cc4)c12)[C@@H](CC(=O)O)CC3 [MK-0524]
basal HA levels [2]: neither MK-0524 (MK) nor Ramatroban (RAM) influenced basal HA levels | PGD2- and PGJ2-induced HA production ([2]; 18 hours): completely blocked the ability of both PGD2 and PGJ2 to induce HA production

O=C(O)CCCCCCC1C(=O)NC(=O)N1CCC(O)C1CCCCC1 (stereo not drawn) [BW245C]
HAS3 mRNA increase ([7]; 6 hours): 4.8±0.06 | HAS1 mRNA fold increase ([7]; two hours, compared to vehicle): 329±128 fold | HAS2 mRNA fold increase ([7]; two hours, compared to vehicle): 17±0.14 fold | HA levels after selective DP agonist [2]: dose-dependently increased HA levels | intracellular cAMP production (orbital fibroblasts): significantly increased intracellular cAMP production within 15 to 30 minutes
